Measured values as given in patent US12600709B2, “Nonpeptide somatostatin type 5 receptor agonists and uses thereof” (Crinetics Pharmaceuticals, Inc., priority 2019, dated 2026).

Target: T1, human somatostatin receptor subtype 5 (Homo sapiens, UniProt P35346)
T1 construct: expressed in transfected cells
Experiment: cAMP assay for SST5R (inhibition of cAMP in CHO-K1 cells)
Assay type: cell-based
Conditions: Table A; inhibition of cAMP via human SST5 receptor; read-out: SST5 potency
Description: General overview: All five SSTR subtypes are Gi coupled G-protein coupled receptors (GPCRs) that lead to decreases in intracellular cyclic AMP (cAMP) when activated by an agonist. Therefore, measurement of intracellular cAMP levels can be used to assess whether compounds of the invention are agonists of SSTR subtypes (John Kelly, Troy Stevens, W. Joseph Thompson, and Roland Seifert, Current Protocols in Pharmacology, 2005, 2.2.1-2.2). One example of an intracellular cAMP assay is described below.
cAMP Assay Protocol for SST5R:
Four days prior to the assay, 2,000 Chinese hamster ovary cells (CHO-K1, ATCC #CCL-61) stably expressing the human somatostatin receptor subtype 5 are plated in each well of a 96-well tissue culture-treated plate in Ham's F12 growth media (ThermoFisher #10-080-CM) supplemented with 10% donor bovine serum (Gemini Bio-Products #100-506), 100 U/mL penicillin; 100 µg/mL streptomycin; 2 mM L-glutamine (Gemini Bio-Products #400-110) and 0.25 mg/mL G418 Sulfate (GoldBio #108321-42-2). The cells are cultured at 37° C., 5% CO2 and 95% humidity. On the day of the assay, the media is aspirated and the cells are treated with 50 μL of 1.6 μM NKH477 (Sigma #N3290) plus various dilutions of compounds of the invention in assay buffer [1× Hank's Balanced Salt Solution (ThermoFisher #SH3058802), 0.5 mM HEPES pH 7.4, 0.1% bovine serum albumin, 0.2 mM 3-Isobutyl-1-methylxanthine (IBMX, VWR #200002-790)]. The cells are incubated for 20 minutes at 37° C. […] The cells are treated with 50 μL of lysis buffer (HRTF cAMP kit, Cisbio) for 30 minutes and then the lysate is diluted to 250 μL with assay buffer. The lysate is transferred to 384-well plates and cAMP detection and visualization antibodies are added and incubated for 1-24 hours at room temperature. The time-resolved fluorescent signal is read with a Tecan M1000Pro multiplate reader. The intracellular cAMP concentrations are calculated by regression to a standard curve and are plotted vs. the concentration of the compounds of the invention and the EC50 of the compounds are calculated using standard methods. All data manipulations are in GraphPad Prism v6 or v7.

T1 sequence (P35346 whole entry): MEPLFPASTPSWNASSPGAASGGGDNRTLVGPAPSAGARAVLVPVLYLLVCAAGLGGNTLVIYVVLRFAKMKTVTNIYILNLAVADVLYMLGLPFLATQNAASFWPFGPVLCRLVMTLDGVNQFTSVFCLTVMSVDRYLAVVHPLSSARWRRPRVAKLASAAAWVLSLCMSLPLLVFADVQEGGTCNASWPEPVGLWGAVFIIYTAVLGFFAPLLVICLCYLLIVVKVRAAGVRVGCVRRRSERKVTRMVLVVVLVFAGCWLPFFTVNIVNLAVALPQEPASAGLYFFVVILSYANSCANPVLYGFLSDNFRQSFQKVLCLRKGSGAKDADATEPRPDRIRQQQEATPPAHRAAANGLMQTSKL

| Compound | EC50 [µM] |
| --- | --- |
| C[C@]1(N)CCN(c2c(C(=O)NC(C3CC3)C3CC3)ccnc2-c2cc(F)cc(F)c2)C1 [3-4, 3-[(3S)-3-amino-3-methylpyrrolidin-1-yl]-N-(dicyclopropylmethyl)-2-(3,5-difluorophenyl)pyridine-4-carboxamide] | < 0.01 |
| C[C@]1(N)CCN(c2c(C(=O)NCC3CCC3)cncc2-c2cc(F)cc(F)c2)C1 [1-33, 4-[(3S)-3-amino-3-methylpyrrolidin-1-yl]-N-(cyclobutylmethyl)-5-(3,5-difluorophenyl)pyridine-3-carboxamide] | < 0.01 |
| Cc1cccc2[nH]c(-c3cncc(C(=O)N(C)CC(F)(F)F)c3N3CC[C@](C)(N)C3)nc12 [2-10, 4-[(3S)-3-amino-3-methylpyrrolidin-1-yl]-N-methyl-5-(4-methyl-1H-1,3-benzodiazol-2-yl)-N-(2,2,2-trifluoroethyl)pyridine-3-carboxamide] | < 0.01 |
| Cc1cc(F)cc(-c2cncc(C(=O)NCC3CC3)c2N2CC[C@](C)(N)C2)c1 [1-26, 4-[(3S)-3-amino-3-methylpyrrolidin-1-yl]-N-(cyclopropylmethyl)-5-(3-fluoro-5-methylphenyl)pyridine-3-carboxamide] | < 0.01 |
| C[C@H](NC(=O)c1ncc(C#N)c(-c2cc(F)cc(F)c2)c1N1CC[C@](C)(N)C1)C1CC1 [4-3, 3-[(3S)-3-amino-3-methylpyrrolidin-1-yl]-5-cyano-N-[(1S)-1-cyclopropylethyl]-4-(3,5-difluorophenyl)pyridine-2-carboxamide] | < 0.01 |
| C[C@]1(N)CCN(c2c(C(=O)NC34CCC(CC3)C4)ccnc2-c2cc(F)cc(F)c2)C1 [3-5, 3-[(3S)-3-amino-3-methylpyrrolidin-1-yl]-N-{bicyclo[2.2.1]heptan-1-yl}-2-(3,5-difluorophenyl)pyridine-4-carboxamide] | 0.01 to 0.1 |
| C[C@H](NC(=O)c1cnc(C2CC2)c(-c2cc(F)cc(F)c2)c1N1CC[C@](C)(N)C1)C(F)(F)F [1-290, 4-[(3S)-3-amino-3-methylpyrrolidin-1-yl]-6-cyclopropyl-5-(3,5-difluorophenyl)-N-[(2S)-1,1,1-trifluoropropan-2-yl]pyridine-3-carboxamide] | < 0.01 |
| COc1ncc(C(=O)NC2CCC(F)(F)CC2)c(N2CC[C@](C)(N)C2)c1-c1cc(F)cc(F)c1 [1-144, 4-[(3S)-3-amino-3-methylpyrrolidin-1-yl]-N-(4,4-difluorocyclohexyl)-5-(3,5-difluorophenyl)-6-methoxypyridine-3-carboxamide] | < 0.01 |
| N#Cc1ncc(C(=O)N2CCCCC2)c(N2CC[C@H](N)C2)c1-c1cc(F)cc(F)c1 [1-80, 4-[(3S)-3-aminopyrrolidin-1-yl]-3-(3,5-difluorophenyl)-5-(piperidine-1-carbonyl)pyridine-2-carbonitrile] | 0.1 to 1 |
| N#Cc1ncc(C(=O)NC23CC(C2)C3)c(N2CC[C@](N)(CO)C2)c1-c1cc(F)cc(F)c1 (single isomer, unassigned) [1-99] | > 1 |
| Cc1cccc2[nH]c(-c3cncc(C(=O)N4CC(C)(C)C4)c3N3CC[C@](C)(N)C3)nc12 [2-21, (3S)-1-[3-(3,3-dimethylazetidine-1-carbonyl)-5-(4-methyl-1H-1,3-benzodiazol-2-yl)pyridin-4-yl]-3-methylpyrrolidin-3-amine] | 0.01 to 0.1 |
| C[C@]1(N)CCN(c2c(C(=O)NC3CCC(F)(F)CC3)cnc(C(F)(F)F)c2-c2cc(F)cc(F)c2)C1 [1-211, 4-[(3S)-3-amino-3-methylpyrrolidin-1-yl]-N-(4,4-difluorocyclohexyl)-5-(3,5-difluorophenyl)-6-(trifluoromethyl)pyridine-3-carboxamide] | < 0.01 |
| C[C@H](NC(=O)c1cncc(-c2nc3c(F)cccc3[nH]2)c1N1CC[C@](C)(N)C1)C(F)(F)F [2-24, 4-[(3S)-3-amino-3-methylpyrrolidin-1-yl]-5-(4-fluoro-1H-1,3-benzodiazol-2-yl)-N-[(2S)-1,1,1-trifluoropropan-2-yl]pyridine-3-carboxamide] | < 0.01 |
| N[C@H]1CCN(c2c(C(=O)NC3CCC(F)(F)CC3)cnc(OCC(=O)O)c2-c2cc(F)cc(F)c2)C1 [1-203, 2-({4-[(3S)-3-aminopyrrolidin-1-yl]-5-[(4,4-difluorocyclohexyl)carbamoyl]-3-(3,5-difluorophenyl)pyridin-2-yl}oxy)acetic acid] | < 0.01 |
| Cc1cccc2[nH]c(-c3cncc(C(=O)N4CCC(C(C)(C)C)C4)c3N3CC[C@](C)(N)C3)nc12 (stereo partly drawn) [2-27, (3S)-1-[3-(3-tert-butylpyrrolidine-1-carbonyl)-5-(4-methyl-1H-1,3-benzodiazol-2-yl)pyridin-4-yl]-3-methylpyrrolidin-3-amine] | < 0.01 |
| COc1ncc(C(=O)NC(C2CC2)C(F)(F)F)c(N2CC[C@H](N)C2)c1-c1cc(F)cc(F)c1 (stereo partly drawn) [1-194, 4-[(3S)-3-aminopyrrolidin-1-yl]-N-(1-cyclopropyl-2,2,2-trifluoroethyl)-5-(3,5-difluorophenyl)-6-methoxypyridine-3-carboxamide] | < 0.01 |
| C[C@H](NC(=O)c1cnc(OCC(F)(F)F)c(-c2cc(F)cc(F)c2)c1N1CC[C@](C)(N)C1)C1CC1 [1-190, 4-[(3S)-3-amino-3-methylpyrrolidin-1-yl]-N-[(1S)-1-cyclopropylethyl]-5-(3,5-difluorophenyl)-6-(2,2,2-trifluoroethoxy)pyridine-3-carboxamide] | < 0.01 |
| N#Cc1ncc(C(=O)NC23CC(C2)C3)c(N2CC[C@H](N)C2)c1-c1cccc(Cl)c1 [1-84, 4-[(3S)-3-aminopyrrolidin-1-yl]-N-{bicyclo[1.1.1]pentan-1-yl}-5-(3-chlorophenyl)-6-cyanopyridine-3-carboxamide] | < 0.01 |
| N#Cc1ncc(C(=O)NC23CC(C2)C3)c(N2CC[C@H](N)C2)c1-c1cccc(F)c1 [1-65, 4-[(3S)-3-aminopyrrolidin-1-yl]-N-{bicyclo[1.1.1]pentan-1-yl}-6-cyano-5-(3-fluorophenyl)pyridine-3-carboxamide] | < 0.01 |
| C[C@]1(N)CCN(c2c(C(=O)NCC(F)(F)F)cncc2-c2cc(F)cc(F)c2)C1 [1-28, 4-[(3S)-3-amino-3-methylpyrrolidin-1-yl]-5-(3,5-difluorophenyl)-N-(2,2,2-trifluoroethyl)pyridine-3-carboxamide] | 0.01 to 0.1 |
| C[C@]1(N)CCN(c2cc(C#N)ncc2C(=O)NC23CC(C2)C3)C1 [1-75, 4-[(3S)-3-amino-3-methylpyrrolidin-1-yl]-N-{bicyclo[1.1.1]pentan-1-yl}-6-cyanopyridine-3-carboxamide] | 0.1 to 1 |
| Cc1cc(C)cc(-c2cncc(C(=O)NC3CCCC(F)(F)C3)c2N2CC[C@](C)(N)C2)c1 (stereo partly drawn) [1-14, 4-[(3S)-3-amino-3-methylpyrrolidin-1-yl]-N-(3,3-difluorocyclohexyl)-5-(3,5-dimethylphenyl)pyridine-3-carboxamide] | < 0.01 |
| Cc1cccc2[nH]c(-c3cncc(C(=O)NCC4CC4)c3N3CC[C@](C)(N)C3)nc12 [2-13, 4-[(3S)-3-amino-3-methylpyrrolidin-1-yl]-N-(cyclopropylmethyl)-5-(4-methyl-1H-1,3-benzodiazol-2-yl)pyridine-3-carboxamide] | < 0.01 |
| Cc1cccc2[nH]c(-c3cncc(C(=O)NC4CC4)c3N3CC[C@](C)(N)C3)nc12 [2-12, 4-[(3S)-3-amino-3-methylpyrrolidin-1-yl]-N-cyclopropyl-5-(4-methyl-1H-1,3-benzodiazol-2-yl)pyridine-3-carboxamide] | 0.01 to 0.1 |
| C[C@H](NC(=O)c1cnc(C#N)c(-c2cc(F)cc(F)c2)c1N1CC[C@@](N)(CF)C1)C1CC1 (single isomer, unassigned) [1-220] | < 0.01 |
| Cc1ncc(C(=O)NC(CO)C2CC2)c(N2CC[C@](C)(N)C2)c1-c1cc(F)cc(F)c1 (stereo partly drawn) [1-224, 4-[(3S)-3-amino-3-methylpyrrolidin-1-yl]-N-(1-cyclopropyl-2-hydroxyethyl)-5-(3,5-difluorophenyl)-6-methylpyridine-3-carboxamide] | 0.01 to 0.1 |
| C[C@H](NC(=O)c1cnc(C#N)c(-c2cc(F)cc(F)c2)c1N1C[C@H](N)[C@@H](F)C1)C1CC1 (single isomer, unassigned) [1-136] | 0.01 to 0.1 |
| C[C@]1(N)CCN(c2c(C(=O)NCC3CC3(F)F)cncc2-c2cc(F)cc(F)c2)C1 (stereo partly drawn) [1-42, 4-[(3S)-3-amino-3-methylpyrrolidin-1-yl]-N-[(2,2-difluorocyclopropyl)methyl]-5-(3,5-difluorophenyl)pyridine-3-carboxamide] | < 0.01 |
| N#Cc1ncc(C(=O)NC2CCCC2)c(N2CC[C@H](N)C2)c1-c1cc(F)cc(F)c1 [1-82, 4-[(3S)-3-aminopyrrolidin-1-yl]-6-cyano-N-cyclopentyl-5-(3,5-difluorophenyl)pyridine-3-carboxamide] | < 0.01 |
